Experimental findings from PMC9697930 (International Journal of Molecular Sciences, 2022) are described below.

The test system of one series is ABCG2 mRNA. The series is described as follows: Gene induction study (qRT-PCR) in MCF-7 cells. The format is cell-based, Human. To be noted: 0.5 µM, 24 and 48 h. How it is done: (§1) Gene expression analyses based on quantitative real-time reverse transcription PCR (qRT-PCR) were performed as described previously. MCF-7 cell line (3.8×10^5 cells/well) was seeded in 12-well plates 24 h before induction experiments. […] After 24 and 48 h intervals, samples were collected by using TRI Reagent. Subsequently, total RNA was isolated from the cells using the chloroform/isopropanol method. Reverse transcription of 1 μg RNA to cDNA was conducted with ProtoScript II Reverse Transcriptase using T100 Thermal Cycler (Bio-Rad Laboratories, Hercules, CA, USA) according to the two-step protocol described previously. The expressions of ABCB1, ABCC1, and ABCG2 genes were measured by qRT-PCR using specific TaqMan assays with QuantStudio 6 machine (Life Technologies, Carlsbad, CA, USA). qRT-PCR reactions were run under predefined thermal cycling conditions (95 °C for 10 min, then 40 repeats of a cycle of 95 °C for 15 s and 60 °C for 60 s). GAPDH and B2M were used as house-keeping genes; the fold-changes in target genes’ expressions were determined according to the 2^-ΔΔCt method.

In the next series the test system is ABCC1 mRNA. The series can be described thus: Gene induction study (qRT-PCR) in MCF-7 cells. The class given is cell-based, Human. The following applies: 0.5 µM, 24 and 48 h. How it is done:
as §1

The subject of the next series is ABCB1 mRNA. The series is described as follows: Gene induction study (qRT-PCR) in MCF-7 cells. The format is cell-based, Human. The following applies: 0.5 µM, 24 and 48 h. The procedure: as §1
Another series relates to MDCKII-ABCC1. The series can be described thus: MTT proliferation / drug combination assay. To be noted: Canis lupus familiaris, comparative MTT, 48 h, read-out: antiproliferative IC50. The class given is cell-based, Canine. How it is done: (§2) The viability MTT assay was employed in several experimental sets, including induction studies, comparative viability assays, and drug combinations. First, 1.3 × 10^4 (MDCKII sublines), 1.2 × 10^4 (A431 sublines), 1.5 × 10^4 (MCF-7), and 1.0 × 10^4 (primary NSCLC explants) cells were seeded in 96-well plates. After seeding, cells were left to refresh in incubator for 24 h. Secondly, the medium was removed, and the serial dilutions of the drugs or drug combinations were added to the cells. Next to these variants, a medium with 40% DMSO and vehicle-containing media were tested as nonviable and unaffected viability controls, respectively. After an additional 48 h of incubation, the cells were washed with 1 × PBS and then treated with 1 mg/mL MTT solution in Opti-MEM. Subsequently, cells were incubated for 60 min under standard conditions. After MTT treatment, generated formazan crystals were solubilized with DMSO for 10 min. Wavelengths of 570 nm (formazan) and 690 nm (background) were used for absorbance measurements using a microplate reader Infinite 200 Pro NanoQuant (Tecan, Männedorf, Switzerland).
(§3) In vitro cell lines (MDCKII and A431) and primary NSCLC explants were seeded (see densities above) in 96-well plates and incubated for 24 h. […] Combined cells were incubated with the tested compounds for 48 h, and subsequently, MTT assay was performed to assess cell viability as described above. Besides IC50-shift analysis, CompuSyn 3.0.1 software (ComboSyn Inc., Paramus, NJ, USA) was used for the additional analysis of obtained data. This software works with the algorithms of the combination index (CI) method of Chou–Talalay, which is frequently used for the accurate quantification of drug combinations’ outcomes. According to the CI method principle, the combination effects were separated into three categories, including synergistic (CI < 0.9), additive (CI between 0.9–1.1), or antagonistic (CI > 1.1) ones.

The subject of the next series is MDCKII-parent. The series can be described thus: MTT proliferation / drug combination assay. The format is cell-based, Canine. To be noted: Canis lupus familiaris; MDCKII-par; comparative MTT, 48 h; read-out: antiproliferative IC50. The procedure: as §2, §3
Series [1] can be described thus: MTT proliferation / drug combination assay. The class given is cell-based, Canine. The following applies: dog, MDCKII-ABCG2 cells; MDCKII-ABCG2; comparative MTT, 48 h; read-out: antiproliferative IC50. How it is done: as §2, §3
The target in a further series is ABCC1 (Homo sapiens, UniProt P33527). The series can be described thus: Accumulation assay with daunorubicin in MDCKII-ABCC1 cells. The following applies: read-out: ABCC1 inhibition IC50. Further details: expressed in transfected cells; host or cells: MDCKII (canine kidney) subline MDCKII-ABCC1, gift of Dr. Alfred Schinkel. The class given is cell-based. The procedure:
(§4) The conduction of accumulation assays followed the slightly changed protocol described previously. In the study, MDCKII-par, MDCKII-ABCB1, MDCKII-ABCC1, MDCKII-ABCG2, and primary explants were seeded into 12-well plates in variant densities, 22.0 × 10^4, 15.0 × 10^4, 25.0 × 10^4, 22.0 × 10^4, and 15.0 × 10^4 cells/well, respectively. After 24 h incubation, two washing steps with 1 × PBS were applied. […] The cells were then incubated under standard conditions for 30 min. Next steps included placing the plates on ice, washing the cells with ice-cold 1 × PBS two-times, and detaching the cells with the ice-cold 10 × trypsin without phenol red. Following trypsinization, cells were resuspended in 1 × PBS containing 2% FBS. Subsequently, cell suspensions were transferred into the test tubes and kept on ice. The fluorescence in cells was measured immediately after the collection of their suspensions using flow cytometer Sony SA3800 Spectral Cell Analyzer (Sony Biotechnology, San Jose, CA, USA). SA3800 software (Sony Biotechnology, San Jose, CA, USA) was used to evaluate the data.

Another series concerns A431-ABCG2. The series is described as follows: MTT proliferation / drug combination assay. The format is cell-based. The following applies: Homo sapiens; A431-ABCG2; comparative MTT, 48 h; read-out: antiproliferative IC50. The procedure:
as §2, §3

A further series has as its system A431-ABCC1. The series can be described thus: MTT proliferation / drug combination assay. The format is cell-based. The following applies: Homo sapiens, comparative MTT, 48 h, read-out: antiproliferative IC50. How it is done: as §2, §3
The test system of another series is A431-parent. The series is described as follows: MTT proliferation / drug combination assay. The format is cell-based. To be noted: Homo sapiens, A-431; A431 parental; comparative MTT, 48 h; read-out: antiproliferative IC50. How it is done: as §2, §3
The target of another series is ABCB1 (Homo sapiens, UniProt P08183). The series can be described thus: Accumulation assay with daunorubicin in MDCKII-ABCB1 cells. The format is cell-based. More on the design: expressed in transfected cells; host or cells: MDCKII (canine kidney) subline MDCKII-ABCB1, gift of Dr. Alfred Schinkel. The following applies: read-out: ABCB1 inhibition IC50. How it is done:
as §4

Chain of ABCC1 (P33527 whole entry): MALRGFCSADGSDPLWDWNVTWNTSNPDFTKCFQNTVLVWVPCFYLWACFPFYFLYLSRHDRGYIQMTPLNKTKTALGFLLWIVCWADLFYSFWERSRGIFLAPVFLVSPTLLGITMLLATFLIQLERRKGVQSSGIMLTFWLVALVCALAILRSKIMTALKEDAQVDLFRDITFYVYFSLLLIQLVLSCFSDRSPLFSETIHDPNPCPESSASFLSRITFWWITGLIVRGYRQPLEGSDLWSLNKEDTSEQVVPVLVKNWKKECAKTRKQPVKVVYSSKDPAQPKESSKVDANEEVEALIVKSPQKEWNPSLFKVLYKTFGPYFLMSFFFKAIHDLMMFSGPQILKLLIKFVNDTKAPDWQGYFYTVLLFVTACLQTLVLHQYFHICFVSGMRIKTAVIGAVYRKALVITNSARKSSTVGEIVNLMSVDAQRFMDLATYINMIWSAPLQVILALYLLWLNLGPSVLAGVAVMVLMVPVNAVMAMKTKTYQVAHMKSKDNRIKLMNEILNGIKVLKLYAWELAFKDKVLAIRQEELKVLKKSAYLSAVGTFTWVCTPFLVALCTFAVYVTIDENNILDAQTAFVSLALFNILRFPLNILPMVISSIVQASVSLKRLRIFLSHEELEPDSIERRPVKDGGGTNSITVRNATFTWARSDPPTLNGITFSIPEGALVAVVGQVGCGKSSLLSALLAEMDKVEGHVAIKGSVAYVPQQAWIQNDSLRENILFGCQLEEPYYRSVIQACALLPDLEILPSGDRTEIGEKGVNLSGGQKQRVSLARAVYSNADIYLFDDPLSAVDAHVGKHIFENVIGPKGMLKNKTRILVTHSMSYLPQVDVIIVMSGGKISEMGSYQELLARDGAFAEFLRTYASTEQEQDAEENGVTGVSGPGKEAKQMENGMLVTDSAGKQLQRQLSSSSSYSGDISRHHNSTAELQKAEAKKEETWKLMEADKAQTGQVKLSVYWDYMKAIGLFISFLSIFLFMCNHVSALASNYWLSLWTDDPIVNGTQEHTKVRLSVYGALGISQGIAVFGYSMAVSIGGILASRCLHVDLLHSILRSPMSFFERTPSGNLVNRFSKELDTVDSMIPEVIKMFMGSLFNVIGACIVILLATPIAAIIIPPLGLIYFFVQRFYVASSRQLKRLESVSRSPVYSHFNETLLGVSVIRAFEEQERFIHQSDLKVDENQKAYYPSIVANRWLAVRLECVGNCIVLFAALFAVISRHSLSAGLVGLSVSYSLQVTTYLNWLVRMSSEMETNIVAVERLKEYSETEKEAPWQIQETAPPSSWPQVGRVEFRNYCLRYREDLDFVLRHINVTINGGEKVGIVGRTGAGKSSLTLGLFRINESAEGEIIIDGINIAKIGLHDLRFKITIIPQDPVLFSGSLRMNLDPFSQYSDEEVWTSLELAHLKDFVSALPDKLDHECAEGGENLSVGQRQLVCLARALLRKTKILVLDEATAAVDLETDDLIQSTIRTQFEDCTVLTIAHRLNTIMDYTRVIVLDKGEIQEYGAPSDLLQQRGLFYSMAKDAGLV
Chain of ABCB1 (P08183 whole entry): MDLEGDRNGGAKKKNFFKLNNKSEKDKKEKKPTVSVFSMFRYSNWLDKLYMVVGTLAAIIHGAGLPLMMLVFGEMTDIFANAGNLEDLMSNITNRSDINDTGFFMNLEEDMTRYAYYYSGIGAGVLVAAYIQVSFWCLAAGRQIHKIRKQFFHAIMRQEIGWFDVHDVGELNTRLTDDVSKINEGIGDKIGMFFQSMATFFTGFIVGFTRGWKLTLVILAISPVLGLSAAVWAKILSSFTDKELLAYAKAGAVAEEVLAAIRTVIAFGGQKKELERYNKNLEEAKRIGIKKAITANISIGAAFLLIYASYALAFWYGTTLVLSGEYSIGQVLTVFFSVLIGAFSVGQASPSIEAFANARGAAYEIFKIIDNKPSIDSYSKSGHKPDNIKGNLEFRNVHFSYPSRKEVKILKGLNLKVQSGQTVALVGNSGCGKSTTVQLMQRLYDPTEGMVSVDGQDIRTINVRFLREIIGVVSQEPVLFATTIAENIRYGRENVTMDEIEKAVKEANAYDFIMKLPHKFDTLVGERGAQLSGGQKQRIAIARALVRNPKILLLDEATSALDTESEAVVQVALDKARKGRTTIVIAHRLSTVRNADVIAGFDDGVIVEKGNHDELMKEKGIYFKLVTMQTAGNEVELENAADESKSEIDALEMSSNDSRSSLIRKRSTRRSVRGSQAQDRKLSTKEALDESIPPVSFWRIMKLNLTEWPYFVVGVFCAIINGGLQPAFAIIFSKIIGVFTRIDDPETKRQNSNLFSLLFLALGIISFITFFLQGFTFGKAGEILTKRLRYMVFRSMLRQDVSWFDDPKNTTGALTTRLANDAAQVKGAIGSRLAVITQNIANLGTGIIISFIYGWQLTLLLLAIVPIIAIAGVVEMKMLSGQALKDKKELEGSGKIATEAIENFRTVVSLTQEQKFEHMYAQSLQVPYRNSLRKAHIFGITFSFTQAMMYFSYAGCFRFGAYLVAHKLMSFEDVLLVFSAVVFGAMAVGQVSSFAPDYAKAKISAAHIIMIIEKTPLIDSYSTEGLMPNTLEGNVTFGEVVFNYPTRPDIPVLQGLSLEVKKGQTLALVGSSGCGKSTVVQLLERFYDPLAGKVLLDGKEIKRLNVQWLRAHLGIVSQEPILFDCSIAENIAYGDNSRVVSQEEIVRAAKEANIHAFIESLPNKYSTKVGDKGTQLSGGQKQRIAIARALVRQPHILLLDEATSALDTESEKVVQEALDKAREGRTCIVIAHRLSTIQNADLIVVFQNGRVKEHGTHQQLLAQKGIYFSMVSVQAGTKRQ

For the compound `Cn1ncnc1[C@H]1c2n[nH]c(=O)c3cc(F)cc(c23)N[C@@H]1c1ccc(F)cc1` [talazoparib, Talazoparib], the “change of ABCG2 mRNA expression vs vehicle control” value in the series with ABCG2 mRNA is reported as “did not trigger the transporters’ expression increase or decrease by more than 100% or 50%”. The “change of ABCC1 mRNA expression vs vehicle control” value with ABCC1 mRNA is recorded as “did not trigger the transporters’ expression increase or decrease by more than 100% or 50%”. Also, the “change of ABCB1 mRNA expression vs vehicle control” value in the series on ABCB1 mRNA was “did not trigger the transporters’ expression increase or decrease by more than 100% or 50%”. For the same compound, the IC50 in the series with MDCKII-ABCC1 came out at 66 µM; with MDCKII-parent, 69.4 µM; on ABCC1, 5.62 µM; in the series with A431-ABCG2, 91.8 µM; with A431-ABCC1, 91.5 µM; in the series with A431-parent, 86.8 µM. On ABCB1, the IC50 is over 50 µM. The IC50 at 48 h in [1] amounted to 64.5 µM.
